Consider 1 compound from patent US10980776B2, “Synergistic pharmaceutical combination for the treatment of squamous cell carcinoma of head and neck” (Piramal Enterprises Limited, priority 2011, dated 2021).

The test system of data set [1] is FADU cells. The data set is described as follows: CCK-8 cytotoxicity assay, determination of inhibitory concentrations in FADU cells. It counts as cell-based, human. The following applies: 72 hr. The method, then: (§1) Logarithmically growing cells were plated at a density of 3×10^3 cells/well and allowed to recover overnight. […] After 72 hours, cell toxicity was determined by CCK-8 (Cell Counting Kit-8) reagent (Dojindo Molecular Technologies, Japan); WST-8 (2-(2-methoxy-4-nitrophenyl)-3-(4-nitrophenyl)-5-(2, 4-disulfophenyl)]-2H-tetrazolium, monosodium salt) assay. In accordance with the manufacturer's instructions, 5 μl/well CCK-8 reagent was added and plates were incubated for 2 hours. The toxicity was determined by measuring the absorbance on Tecan Sapphire multi-fluorescence micro-plate reader (Tecan, Germany, GmbH) at a wavelength of 450 nm corrected to 650 nm and normalized to controls.
(§2) CCK-8 allows convenient assays using Dojindo's tetrazolium salt, WST [8[(2-(2-methoxy-4-nitrophenyl)-3-(4-nitrophenyl)-5-(2,4-disulfophenyl)-2H-tetrazolium, monosodium salt], which produces a water-soluble formazan dye upon bioreduction in the presence of an electron carrier, 1-Methoxy PMS. CCK-8 solution is added directly to the cells; no pre-mixing of components is required. CCK-8 is a sensitive nonradioactive colorimetric assay for determining the number of viable cells in cell proliferation and cytotoxicity assays. WST-8 is bio-reduced by cellular dehydrogenases to an orange formazan product that is soluble in tissue culture medium. The amount of formazan produced is directly proportional to the number of living cells. The detection sensitivity of cell proliferation assays using WST-8 is higher than assays using the other tetrazolium salts such as MIT, XTT, MTS or WST-1. Optical Density was determined at measurement wavelength of 450 nm and reference wave length of 630 nm.
(§3) The cells were seeded at a density of 3000 cells/well, in a 200 μL in tissue culture grade 96 well plate and were allowed to recover for 24 hrs in a humidified 5%±0.2 CO2 incubator at 37° C.±0.5° C. […] The final DMSO concentration was 0.5% in wells. Plates were incubated for 48 hrs in humidified 5%±0.2 CO2 incubator at 37±0.5° C. After 48 hrs the plates were removed from CO2 incubator and 5 μL of Cell counting Kit (CCK-8) per well was added. The same plate was kept at 37° C. for 3 hrs, and allowed to come to room temperature. The absorbance at a wavelength of 450 nm was read on Tecan safire reader. The percent cytotoxicity was calculated using the following formula.
(Tetrazolium dyes change colour on reduction, which living cells bring about.)

Data set [2] relates to Detroit-562 cells. The data set is described as follows: Combination studies (single and sequential combination dosing), % cytotoxicity in Detroit-562 cells. The following applies: Detroit-562. The procedure: as §1, §2
Sorafenib in the following dose of final concentration 1.8 μM and compound A in the following doses of final concentration 0.5 μM, 1.3 μM and 12.1 μM were analyzed in single dose and in all possible combinations of the dose range for the two anticancer agents mentioned above. The sequence of treatment is as follows; Detroit-562 cells were treated with sorafenib for 0 to 24 hrs. At the end of 24 hrs the cells were washed two times with plain MEM medium. Fresh MEM with 10% serum (200 μL/well) was added, followed by treatment with compound A from 24 hrs to 96 hrs.
Sorafenib in the following dose of final concentration 1.8 μM and compound B in the following doses of final concentration 2.7 μM, 14.1 μM and 25.2 μM were analyzed in single dose and in all possible combinations of the dose range for the two anticancer agents mentioned above. The sequence of treatment is as follows; the Detroit-562 cells were treated with sorafenib for 0 to 24 hrs. At the end of 24 hrs the cells were washed two times with plain MEM medium. Fresh MEM with 10% serum (200 μL/well) was added, followed by treatment with compound B from 24 hrs to 96 hrs.
Lapatinib in the following dose of final concentration 1 μM and compound A in the following doses of final concentration 0.5 μM, 1.3 μM and 12.1 μM were analyzed in single dose and in all possible combinations of the dose range for the two anticancer agents mentioned above. The sequence of treatment is as follows; the Detroit-562 cells were treated with lapatinib for 0 to 24 hrs. At the end of 24 hrs the cells were washed two times with plain MEM medium. Fresh MEM with 10% serum (200 μL/well) was added, followed by treatment with compound A from 24 hrs to 96 hrs.
Lapatinib in the following dose of final concentration 1.0 μM and compound B in the following doses of final concentration 2.7 μM, 14.1 μM and 25.2 μM were analyzed in single dose and in all possible combinations of the dose range for the two drugs mentioned above. The sequence of treatment is as follows; the Detroit-562 cells were treated with lapatinib for 0 to 24 hrs. At the end of 24 hrs the cells were washed two times with plain MEM medium. Fresh MEM with 10% serum (200 μL/well) was added, followed by treatment with compound A from 24 hrs to 96 hrs.

The test system of data set [3] is SCC-25 cells. The data set is described as follows: CCK-8 cytotoxicity assay, determination of inhibitory concentrations in SCC-25 cells. It counts as cell-based. As to conditions: SCC-25 cells, 72 hr. The procedure:
as §1, §2, §3

Data set [4] concerns Detroit-562 cells. Briefly: CCK-8 cytotoxicity assay, determination of inhibitory concentrations in Detroit-562 cells. It counts as cell-based. As to conditions: 72 hr. The procedure: as §1, §2, §3
In data set [5] the test system is FADU cells.
Data set [6] has as its system FaDu (hypopharyngeal squamous cell carcinoma) xenografts. The data set is described as follows: In vivo efficacy in human head and neck cancer FaDu xenografts. As to conditions: FaDu xenografts in SCID mice; end of treatment, after 18 days; Compound A 35 mpk i.p. once daily 5 days a week; cisplatin 1 mpk i.p. once a week; cetuximab 2.5 mpk twice a week; 3 weeks. (In general: Xenograft models place foreign cells or tissue in a host animal.)
Protocol: In-vivo studies were carried out according to the method described in Clinical cancer search, 2003, 9, 6052-6061; the disclosure of which is incorporated herein by reference for the teaching of the assay.
The in-vivo studies were carried out using Xenograft models in Severe combined immune deficiency (SCID) mice strain—CbySmn.CB17-Prkdcscid/J, by the method described below. The statistically significant number of mice per group (n=6) was chosen in order to be able to statistically evaluate the study data.
FaDu cells were grown in MEM (minimum essential media) medium containing non-essential amino acids and 10% fetal calf serum in 5% CO2 incubator at 37° C. Cells were pelleted by centrifugation at 1000 rpm for 10 minutes. Cells were resuspended in pre-chilled mixture of saline to get a count of 6×10^6 cells per mL; 0.2 ml of this cell suspension was kept on ice and injected by subcutaneous (s.c.) route in SCID mice. Mice were observed every alternate day for palpable tumor mass. Once the tumor size reached a size of 3-5 mm in diameter, animals were randomized into respective groups of treatment and untreated controls. The treatment groups comprised of 5 groups viz. […] The control group received no treatment.
Measurement of tumor was done every 2-3 days apart. Growth inhibition percentage (GI %) was calculated at the end of experiment.

Data set [7] deals with SCC-25 cells. The data set is described as follows: Combination studies (single and sequential combination dosing), % cytotoxicity in SCC-25 cells. The following applies: SCC-25; single agent at IC70 (compound A 4.1 μM). The method, then:
as §1, §2
Sorafenib in the following dose of final concentration 0.18 μM and compound A in the following doses of final concentration 0.1 μM, 0.4 μM and 4.1 μM were analyzed in single dose and in all possible combinations of the dose range for the two anticancer agents mentioned above. The sequence of treatment is as follows; the SCC-25 cells were treated with sorafenib for 0 to 24 hrs. At the end of 24 hrs the cells were washed two times with plain MEM (minimum essential media) medium. Fresh MEM with 10% serum (200 μL/well) was added, followed by treatment with compound A from 24 hrs to 96 hrs.
Sorafenib in the following dose of final concentration 0.18 μM and compound B in the following doses of final concentration 0.2 μM, 1.1 μM and 4.8 μM were analyzed in single dose and in all possible combinations of the dose range for the two anticancer agents mentioned above. The sequence of treatment is as follows; the SCC-25 cells were treated with sorafenib for 0 to 24 hrs. At the end of 24 hrs the cells were washed two times with plain MEM medium. Fresh MEM with 10% serum (200 μL/well) was added, followed by treatment with compound B from 24 hrs to 96 hrs.
Lapatinib in the following dose of final concentration 0.2 μM and compound A in the following doses of final concentration 0.2 μM, 0.5 μM and 3.3 μM were analyzed in single dose and in all possible combinations of the dose range for the two drugs mentioned above. The sequence of treatment is as follows; the SCC-25 cells were treated with lapatinib for 0 to 24 hrs. At the end of 24 hrs the cells were washed two times with plain MEM medium. Fresh MEM with 10% serum (200 μL/well) was added, followed by treatment with compound A from 24 hrs to 96 hrs.
Lapatinib in the following dose of final concentration 0.2 μM and compound B in the following doses of final concentration 0.2 μM, 1.1 μM and 4.8 μM were analyzed in single dose and in all possible combinations of the dose range for the two drugs mentioned above. The sequence of treatment is as follows; the SCC-25 cells were treated with lapatinib for 0 to 24 hrs. At the end of 24 hrs the cells were washed two times with plain MEM medium. Fresh MEM with 10% serum (200 μL/well) was added, followed by treatment with compound A from 24 hrs to 96 hrs.

Broadly, the IC10 is the point of the concentration-response curve where the effect stands at 10%. A high value points to a need for much substance. The term IC30 denotes the concentration needed for an effect of 30%. One may read the IC50 as the concentration that gives 50% inhibition. For orientation: IC70 means the concentration needed for an effect of 70%. What is called IC90 is the concentration at which the effect reaches the 90% level. Low readings indicate greater potency, high ones weaker potency. For `CN1CC[C@@H](c2c(O)cc(O)c3c(=O)cc(-c4ccccc4Cl)oc23)[C@@H]1CO.Cl` (relative stereo) [Compound A, (+)-trans-2-(2-Chloro-phenyl)-5,7-dihydroxy-8-(2-hydroxy-methyl-1-methyl-pyrrolidin-3-yl)-chromen-4-one hydrochloride], the IC10 with FADU cells [1] turned out to be 80 nM; with Detroit-562 cells [4] it was 100 nM. Besides, the results for the IC30 with FADU cells [1], in the data set on SCC-25 cells [3] and in the data set on Detroit-562 cells [4] were 200 nM, 100 nM and 500 nM, respectively. In addition, the values for the half-inhibitory concentration (IC50) in the data set with FADU cells [1], in the data set with SCC-25 cells [3] (read-out: IC50) and with Detroit-562 cells [4] were 1300 nM, 400 nM and 1300 nM, respectively. The IC70 with FADU cells [1] amounted to 8300 nM; in the data set with SCC-25 cells [3], 4100 nM; in the data set with Detroit-562 cells [4], 12100 nM. For the same compound, the 90% effect concentration (IC90) in the data set with FADU cells [1] worked out at 28300 nM; in the data set on SCC-25 cells [3], 33300 nM; in the data set with Detroit-562 cells [4] it was 26300 nM. Besides, the “% Cytotoxicity” value in the data set on Detroit-562 cells [2] (single agent at IC50 (compound A 1.3 μM), lapatinib study) is on record as 22%; in the data set with Detroit-562 cells [2] (single agent at IC70, cisplatin/5-FU/compound A study) it was 18.02%; with Detroit-562 cells [2] (single agent at IC70, erlotinib study), 34.32%; with SCC-25 cells [7] it was 29%. The compound further showed a cytotoxicity in the data set on FADU cells [5] of 18%. Besides, in data set [6], the “Tumor Growth inhibition (%)” value was 11%.
